In the supplement of paper PMC10307832:

Tests used:
Assay in all cases: relative viability (nuclei count vs DMSO), 5 days (fraction); higher = more cells survive
BAY61-3606 + Trametinib = compound: COC1=C(C=C(C=C1)C2=CC3=NC=CN3C(=N2)NC4=C(C=CC=N4)C(=O)N)OC [BAY61-3606] + CC(=O)Nc1cccc(-n2c(=O)n(C3CC3)c(=O)c3c(Nc4ccc(I)cc4F)n(C)c(=O)c(C)c32)c1 [Trametinib] (partner 0.02 µM)
Outline: (§1)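 Cells from lung cancer lines were seeded into 1536-well plates and, one day later, dosed by pin tool. Treatments were either a single drug or a fixed dose of an anchor drug with five library-drug doses (not always all listed) in √10 steps. After 5 days, nuclei were stained in a one-step fixation (final 0.05% Triton X-100, 1% formaldehyde, 1 ug/ml Hoechst) and counted on 4× images, and relative viability is the treated-to-vehicle nuclei ratio, as the median of duplicate plates.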

BAY61-3606 + Luminespib = compound: COC1=C(C=C(C=C1)C2=CC3=NC=CN3C(=N2)NC4=C(C=CC=N4)C(=O)N)OC [BAY61-3606] + CCNC(=O)c1noc(-c2cc(C(C)C)c(O)cc2O)c1-c1ccc(CN2CCOCC2)cc1 [Luminespib] (partner 0.01 µM)
Outline: as §1

Doxorubicin + Pictilisib = compound: COc1cccc2c1C(=O)c1c(O)c3c(c(O)c1C2=O)C[C@@](O)(C(=O)CO)C[C@@H]3O[C@H]1C[C@H](N)[C@H](O)[C@H](C)O1 [Doxorubicin] + CS(=O)(=O)N1CCN(Cc2cc3nc(-c4cccc5[nH]ncc45)nc(N4CCOCC4)c3s2)CC1 [Pictilisib] (partner 1 µM)
Outline: as §1

Doxorubicin + Olaparib = compound: COc1cccc2c1C(=O)c1c(O)c3c(c(O)c1C2=O)C[C@@](O)(C(=O)CO)C[C@@H]3O[C@H]1C[C@H](N)[C@H](O)[C@H](C)O1 [Doxorubicin] + O=C(c1cc(Cc2n[nH]c(=O)c3ccccc23)ccc1F)N1CCN(C(=O)C2CC2)CC1 [Olaparib] (partner 8 µM)
Outline: as §1

| Cell Line | relative viability (BAY61-3606 + Trametinib; first compound 0.02 µM) | relative viability (BAY61-3606 + Trametinib; first compound 0.06325 µM) | relative viability (BAY61-3606 + Trametinib; first compound 0.2 µM) | relative viability (BAY61-3606 + Trametinib; first compound 0.6325 µM) | relative viability (BAY61-3606 + Trametinib; first compound 2 µM) | relative viability (BAY61-3606 + Luminespib; first compound 0.02 µM) | relative viability (BAY61-3606 + Luminespib; first compound 0.06325 µM) | relative viability (BAY61-3606 + Luminespib; first compound 0.2 µM) | relative viability (BAY61-3606 + Luminespib; first compound 0.6325 µM) | relative viability (BAY61-3606 + Luminespib; first compound 2 µM) | relative viability (Doxorubicin + Pictilisib; first compound 0.001 µM) | relative viability (Doxorubicin + Pictilisib; first compound 0.003162 µM) | relative viability (Doxorubicin + Pictilisib; first compound 0.01 µM) | relative viability (Doxorubicin + Pictilisib; first compound 0.03162 µM) | relative viability (Doxorubicin + Pictilisib; first compound 0.1 µM) | relative viability (Doxorubicin + Olaparib; first compound 0.001 µM) | relative viability (Doxorubicin + Olaparib; first compound 0.003162 µM) | relative viability (Doxorubicin + Olaparib; first compound 0.01 µM) | relative viability (Doxorubicin + Olaparib; first compound 0.03162 µM) | relative viability (Doxorubicin + Olaparib; first compound 0.1 µM) |
| --- | --- | --- | --- | --- | --- | --- | --- | --- | --- | --- | --- | --- | --- | --- | --- | --- | --- | --- | --- | --- |
| LK-2 | 0.727 | 0.806 | 0.897 | 0.915 | 0.683 | 0.168 | 0.163 | 0.185 | 0.185 | 0.208 | 0.498 | 0.457 | 0.534 | 0.498 | 0.442 | 0.713 | 0.672 | 0.585 | 0.604 | 0.653 |
| LOU-NH91 | 0.842 | 0.766 | 0.826 | 0.794 | 0.706 | 0.375 | 0.294 | 0.396 | 0.379 | 0.317 | – | 0.516 | 0.564 | 0.465 | 0.419 | – | 0.877 | 0.899 | 0.666 | 0.462 |
| LU99A | 0.485 | 0.57 | 0.534 | 0.503 | 0.47 | 0.347 | 0.256 | 0.407 | 0.248 | 0.209 | 0.349 | 0.323 | 0.318 | 0.272 | 0.314 | 0.235 | 0.264 | 0.287 | 0.274 | 0.253 |
| LXF-289 | 0.694 | 0.673 | 0.722 | 0.752 | 0.766 | 0.772 | 0.578 | 0.648 | 0.551 | 0.561 | 0.698 | 0.772 | 0.716 | 0.783 | 0.745 | 1.03 | 1.12 | 0.998 | 1.07 | 1.15 |
| NCI-H522 | 0.607 | 0.723 | 0.818 | 0.764 | 0.688 | 1.05 | 1.13 | 1.16 | 1.12 | 0.89 | – | – | – | – | – | 0.524 | 0.658 | 0.678 | 0.638 | 0.589 |
| NCI-H1299 | – | – | – | – | – | – | – | – | – | – | 0.799 | 0.762 | 0.699 | 0.273 | 0.196 | 0.937 | 0.949 | 0.952 | 0.942 | 0.753 |
| NCI-H1563 | – | – | – | – | – | 0.528 | 0.558 | 0.531 | 0.54 | 0.502 | 0.585 | 0.602 | 0.62 | 0.541 | 0.532 | – | – | – | – | – |
| NCI-H1623 | – | – | – | – | – | 0.604 | 0.439 | 0.422 | 0.607 | 0.52 | – | – | – | – | – | – | – | – | – | – |
| NCI-H1648 | 0.47 | 0.466 | 0.546 | – | 0.512 | – | – | – | – | – | – | – | – | – | – | 0.618 | 1.05 | 0.5 | 0.492 | 0.791 |
| NCI-H1703 | – | – | – | – | – | – | – | – | – | – | 0.258 | 0.227 | 0.189 | 0.177 | 0.136 | 0.377 | 0.332 | 0.309 | 0.222 | 0.177 |
| NCI-H2342 | 0.899 | 0.912 | 0.855 | 0.712 | 0.953 | 0.895 | 0.719 | 0.711 | 0.751 | 0.797 | – | – | – | – | – | 0.41 | 0.525 | 0.445 | 0.371 | 0.384 |
| SW 900 | 0.877 | – | – | 0.87 | 0.585 | 0.172 | 0.188 | 0.179 | 0.219 | 0.162 | – | – | – | – | – | – | 1.16 | 0.894 | 0.674 | 0.868 |
